Test results from article PMC4624630, “Enzymatic Synthesis of Rhamnose Containing Chemicals by Reverse Hydrolysis” (PLoS ONE, 2015).

Biological target: T1, RhaL1 (α-L-rhamnosidase from Alternaria sp. L1) (Alternaria sp. L1, UniProt H6UY33)
T1 construct: recombinant, secreted from Pichia pastoris GS115 (vector pPIC9K, SnaBI/NotI), N-glycosylated; about 120 kDa on SDS-PAGE, about 85 kDa after PNGase F
T1 sequence (H6UY33 20-681): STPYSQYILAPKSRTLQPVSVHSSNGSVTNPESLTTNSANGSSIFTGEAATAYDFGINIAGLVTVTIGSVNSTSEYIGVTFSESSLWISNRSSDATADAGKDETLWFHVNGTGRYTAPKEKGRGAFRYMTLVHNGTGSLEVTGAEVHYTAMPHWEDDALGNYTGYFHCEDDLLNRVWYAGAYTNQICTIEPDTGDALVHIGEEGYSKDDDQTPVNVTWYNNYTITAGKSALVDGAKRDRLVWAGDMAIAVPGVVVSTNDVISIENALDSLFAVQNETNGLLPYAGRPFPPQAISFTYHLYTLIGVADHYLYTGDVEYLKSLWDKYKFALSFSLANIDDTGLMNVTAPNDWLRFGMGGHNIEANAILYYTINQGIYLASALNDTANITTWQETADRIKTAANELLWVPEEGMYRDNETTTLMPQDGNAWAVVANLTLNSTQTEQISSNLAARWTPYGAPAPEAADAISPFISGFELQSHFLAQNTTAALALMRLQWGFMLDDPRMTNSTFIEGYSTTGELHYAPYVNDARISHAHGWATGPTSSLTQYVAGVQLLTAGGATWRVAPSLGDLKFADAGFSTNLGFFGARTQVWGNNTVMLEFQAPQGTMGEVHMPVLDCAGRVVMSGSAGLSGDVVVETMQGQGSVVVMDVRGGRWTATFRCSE
Test: reverse hydrolysis; HPLC, product by ESI-MS and NMR
Assay type: biochemical
Settings: glycosyl donor, acceptor D-mannitol (also D-fructose, esculin); pH 6.5, 55 °C, 48 h

## C[C@@H]1OC(O)[C@H](O)[C@H](O)[C@H]1O (stereo partly drawn) [L-rhamnose]
  reverse hydrolysis; HPLC, product by ESI-MS and NMR: synthesized by the recombinant RhaL1 using L-rhamnose as the glycosyl donor and mannitol as the acceptor
